In patent US4340609A, “Amidinourea derivative veterinary compositions for suppression of parasitemia” (William H. Rorer, Inc., priority 1980, dated 1982):
Read-outs that look alike come from different tables or passages of the source.

Test system: plasmodium berghei
Experiment: suppression of parasitemia in mice infected with plasmodium berghei
Assay type: in vivo
Details: for ED50: Plasmodium berghei, sc; for ED50 / Mean % Parasitemia / Mean % Suppression / % died: mice
Protocol: Five representative amidinoureas were tested in mice infected with plasmodium berghei. The five compounds tested are the following:
Groups of 10 mice each were used in seven doses totaling 70 mice per compound. The protozoal infection was induced by intraperitoneal injection of 5,000,000 parasitized blood cells from a donor. The compound was administered subcutaneously in doses ranging from 0.15 to 10 mg. per kg., suspended on 0.5% methacel solution (doses expressed as base). The compound was repeatedly injected on the day of inoculation (day 1), day 2 and day 3. Blood smears were performed on days 4, 5, 6 and 10.
Untreated control but infected mice developed fulminating parasitemia of as high as 35% on day 10 and deaths occurred from day 12 to 14.

[1] = s.c., 1.0 mg/kg on days 1-3, 4th day
[2] = s.c., 1.0 mg/kg on days 1-3, 5th day
[3] = s.c., 1.0 mg/kg on days 1-3, 6th day
[4] = s.c., 1.0 mg/kg on days 1-3, 10th day
[5] = s.c., 2.0 mg/kg on days 1-3, 4th day
[6] = s.c., 2.0 mg/kg on days 1-3, 5th day
[7] = s.c., 2.0 mg/kg on days 1-3, 6th day
[8] = s.c., 2.0 mg/kg on days 1-3, 10th day
[9] = s.c., 10.0 mg/kg on days 1-3, 4th day
[10] = s.c., 10.0 mg/kg on days 1-3, 5th day
[11] = s.c., 10.0 mg/kg on days 1-3, 6th day
[12] = s.c., 10.0 mg/kg on days 1-3, 10th day
[13] = s.c., .15 mg/kg on days 1-3, 4th day
[14] = s.c., .15 mg/kg on days 1-3, 5th day
[15] = s.c., .15 mg/kg on days 1-3, 6th day
[16] = s.c., .15 mg/kg on days 1-3, 10th day
[17] = s.c., .20 mg/kg on days 1-3, 4th day
[18] = s.c., .20 mg/kg on days 1-3, 5th day
[19] = s.c., .20 mg/kg on days 1-3, 6th day
[20] = s.c., .20 mg/kg on days 1-3, 10th day
[21] = s.c., .30 mg/kg on days 1-3, 4th day
[22] = s.c., .30 mg/kg on days 1-3, 5th day
[23] = s.c., .30 mg/kg on days 1-3, 6th day
[24] = s.c., .30 mg/kg on days 1-3, 10th day
[25] = s.c., .50 mg/kg on days 1-3, 4th day
[26] = s.c., .50 mg/kg on days 1-3, 5th day
[27] = s.c., .50 mg/kg on days 1-3, 6th day
[28] = s.c., .50 mg/kg on days 1-3, 10th day

For `CNC(=N)NC(=O)Nc1c(C)cc(Br)cc1Cl.Cl` [Compound C, 1-(4-bromo-2-chloro-6-methylphenyl)-3-methylamidinourea hydrochloride], the ED50 (96 h, s.c., levels of parasitemia, 4th day, read-out: SED50 (Suppressant Effective Dose50)) was 1.12 mg/kg, the ED50 (120 h, s.c., levels of parasitemia, 5th day, read-out: SED50 (Suppressant Effective Dose50)) was 1.12 mg/kg and the ED50 (144 h, s.c., levels of parasitemia, 6th day, read-out: SED50 (Suppressant Effective Dose50)) was 1.39 mg/kg. The ED50 (240 h, s.c., levels of parasitemia, 10th day, read-out: SED50 (Suppressant Effective Dose50)) was 3.99 mg/kg, the ED50 (day 4 to day 10, read-out: HIGHEST SED50) was 3.99 mg/kg and the ED50 (day 4 to day 10, read-out: LOWEST SED50) was 1.12 mg/kg. The “FACTOR (HIGHEST SED50 ÷ LOWEST SED50)” value (factor of change, day 4 to day 10, duration of action) was 3.56, the “Mean % Parasitemia” value [1] was 2.75% and the “Mean % Suppression” value [1] was 47.6%. The “Mean % Parasitemia” value [2] was 3.60%, the “Mean % Suppression” value [2] was 50.7% and the “Mean % Parasitemia” value [3] was 5.20%. For the same molecule, the “Mean % Suppression” value [3] was 44.1%, the “Mean % Parasitemia” value [4] was 28.30% and the “Mean % Suppression” value [4] was 20.3%. The “% died” value (s.c., 1.0 mg/kg on days 1-3, 12th day) was 20%, the “% died” value (s.c., 1.0 mg/kg on days 1-3, 13th day) was 60% and the “% died” value (s.c., 1.0 mg/kg on days 1-3, 14th day) was 60%. For the same molecule, the “Mean % Parasitemia” value [5] was 1.50%, the “Mean % Suppression” value [5] was 71.4% and the “Mean % Parasitemia” value [6] was 1.90%. For the same molecule, the “Mean % Suppression” value [6] was 74.0%, the “Mean % Parasitemia” value [7] was 4.10% and the “Mean % Suppression” value [7] was 56.0%. For the same molecule, the “Mean % Parasitemia” value [8] was 24.28%, the “Mean % Suppression” value [8] was 31.6% and the “% died” value (s.c., 2.0 mg/kg on days 1-3, 12th day) was 20%. For the same molecule, the “% died” value (s.c., 2.0 mg/kg on days 1-3, 13th day) was 20%, the “% died” value (s.c., 2.0 mg/kg on days 1-3, 14th day) was 40% and the “Mean % Parasitemia” value [9] was 0%. For the same molecule, the “Mean % Suppression” value [9] was 100.0%, the “Mean % Parasitemia” value [10] was 0% and the “Mean % Suppression” value [10] was 100.0%. The “Mean % Parasitemia” value [11] was 0%, the “Mean % Suppression” value [11] was 100.0% and the “Mean % Parasitemia” value [12] was 0%. The “Mean % Suppression” value [12] was 100.0%, the “% died” value (s.c., 10.0 mg/kg on days 1-3, 12th day) was 0% and the “% died” value (s.c., 10.0 mg/kg on days 1-3, 13th day) was 0%. The “% died” value (s.c., 10.0 mg/kg on days 1-3, 14th day) was 0%, the “Mean % Parasitemia” value [13] was 5.00% and the “Mean % Suppression” value [13] was 4.8%. For the same molecule, the “Mean % Parasitemia” value [14] was 7.20%, the “Mean % Suppression” value [14] was 1.4% and the “Mean % Parasitemia” value [15] was 9.20%. For the same molecule, the “Mean % Suppression” value [15] was 1.1%, the “Mean % Parasitemia” value [16] was 35.40% and the “Mean % Suppression” value [16] was 0.3%. For the same molecule, the “% died” value (s.c., .15 mg/kg on days 1-3, 12th day) was 20%, the “% died” value (s.c., .15 mg/kg on days 1-3, 13th day) was 40% and the “% died” value (s.c., .15 mg/kg on days 1-3, 14th day) was 80%. For the same molecule, the “Mean % Parasitemia” value [17] was 5.00%, the “Mean % Suppression” value [17] was 4.8% and the “Mean % Parasitemia” value [18] was 6.25%. The “Mean % Suppression” value [18] was 14.4%, the “Mean % Parasitemia” value [19] was 9.10% and the “Mean % Suppression” value [19] was 2.2%. The “Mean % Parasitemia” value [20] was 35.10%, the “Mean % Suppression” value [20] was 1.1% and the “% died” value (s.c., .20 mg/kg on days 1-3, 12th day) was 40%. The “% died” value (s.c., .20 mg/kg on days 1-3, 13th day) was 60%, the “% died” value (s.c., .20 mg/kg on days 1-3, 14th day) was 60% and the “Mean % Parasitemia” value [21] was 4.75%. For the same molecule, the “Mean % Suppression” value [21] was 9.5%, the “Mean % Parasitemia” value [22] was 6.00% and the “Mean % Suppression” value [22] was 17.8%. For the same molecule, the “Mean % Parasitemia” value [23] was 8.30%, the “Mean % Suppression” value [23] was 10.8% and the “Mean % Parasitemia” value [24] was 33.40%. The “Mean % Suppression” value [24] was 5.9%, the “% died” value (s.c., .30 mg/kg on days 1-3, 12th day) was 20% and the “% died” value (s.c., .30 mg/kg on days 1-3, 13th day) was 40%. The “% died” value (s.c., .30 mg/kg on days 1-3, 14th day) was 80%, the “Mean % Parasitemia” value [25] was 4.75% and the “Mean % Suppression” value [25] was 9.5%. The “Mean % Parasitemia” value [26] was 5.20%, the “Mean % Suppression” value [26] was 28.8% and the “Mean % Parasitemia” value [27] was 7.00%. The “Mean % Suppression” value [27] was 24.7%, the “Mean % Parasitemia” value [28] was 31.40% and the “Mean % Suppression” value [28] was 11.5%. The “% died” value (s.c., .50 mg/kg on days 1-3, 12th day) was 0%, the “% died” value (s.c., .50 mg/kg on days 1-3, 13th day) was 20% and the “% died” value (s.c., .50 mg/kg on days 1-3, 14th day) was 80%.
